In patent US20100256147A1, “BIARYL ACETAMIDE DERIVATIVES AS MODULATORS OF THE KINASE CASCADE FOR THE TREATMENT OF HEARING LOSS, OSTEOPOROSIS AND CELL PROLIFERATION DISORDERS” (priority 2007, published 2010):
Blank lines part the entries; values can stand above or below the compound they belong to.

What was measured:
Type in all cases: cell-based
[1] = test system: ACHN; test: Tumor growth inhibition, ACHN; settings: Homo sapiens, read-out: Dasatinib GI50, renal cell adenocarcinoma
[2] = test system: HuH7; test: MTT growth inhibition, HuH7; settings: Homo sapiens, Huh-7, 8.0×10^3 cells/wells, 1.5% FBS, 78 Hr, normalized response data
Method: Samples of the test compounds are formulated in 100% DMSO to obtain 20 mM stock solutions; stored @ 4° C. The IC50s and IC80s are determined as described below. Huh7, WRL-68, PLC/PRF/5, Hep 3B, and Hep G2 human cancer lines are routinely cultured and maintained in a basal medium containing 2% FBS @ 37° C., 5% CO2. Cells are seeded @ 4.0×10^3/190 μl and 8.0×10^3/190 μl per well of a 96-well plate. The assay medium is basal medium/1.5% FBS. […] The test article dilutions are prepared as follows: 20 mM stock solution samples are diluted serially in basal medium/1.5% FBS using 1:3 dilutions, yielding 20× concentrations; 131 μM to 0.24 nM range. 10 μL of 20× dilutions are added to the appropriate wells (n=3) containing 190 μL cancer cell line; 6561 nM to 0.012 nM range of final concentrations. Vehicle control contains cells, no sample. Medium control contains cells, no sample, 0.03% DMSO (highest DMSO concentration present in samples). The treated cells are incubated for 72 hours at 37° C., 5% CO2. On day 3, 10 μL MTT (5 mg/mL) are added to each well. Cells are incubated in the presence of MTT for 4 hours @ 37° C., 5% CO2. 90 μL 10% SDS(+HCl) is added to each well to lyse cells and solubilize formazan. […] OD570 measurements are taken, e.g., using BioTek Synergy HT multiplatform microplate reader. Growth inhibition curves IC50s and IC80s are determined using GraphPad Prism 5 statistical software.

[3] = test system: 769-P; test: Tumor growth inhibition, 769-P; settings: Homo sapiens, read-out: Dasatinib GI50, renal cell adenocarcinoma
[4] = test system: PLC/PRF/5; test: MTT growth inhibition, PLC/PRF/5; settings: Homo sapiens, 8.0×10^3 cells/wells, 1.5% FBS, 78 Hr, normalized response data
Method: (§1) Samples of the test compounds are formulated in 100% DMSO to obtain 20 mM stock solutions; stored @ 4° C. The IC50s and IC80s are determined as described below. Huh7, WRL-68, PLC/PRF/5, Hep 3B, and Hep G2 human cancer lines are routinely cultured and maintained in a basal medium containing 2% FBS @ 37° C., 5% CO2. Cells are seeded @ 4.0×10^3/190 μl and 8.0×10^3/190 μl per well of a 96-well plate. The assay medium is basal medium/1.5% FBS. […] The test article dilutions are prepared as follows: 20 mM stock solution samples are diluted serially in basal medium/1.5% FBS using 1:3 dilutions, yielding 20× concentrations; 131 μM to 0.24 nM range. 10 μL of 20× dilutions are added to the appropriate wells (n=3) containing 190 μL cancer cell line; 6561 nM to 0.012 nM range of final concentrations. Vehicle control contains cells, no sample. Medium control contains cells, no sample, 0.03% DMSO (highest DMSO concentration present in samples). The treated cells are incubated for 72 hours at 37° C., 5% CO2. On day 3, 10 μL MTT (5 mg/mL) are added to each well. Cells are incubated in the presence of MTT for 4 hours @ 37° C., 5% CO2. 90 μL 10% SDS(+HCl) is added to each well to lyse cells and solubilize formazan.

[5] = test system: Hep 3B; test: MTT growth inhibition, Hep 3B; settings: Homo sapiens, Hep3B, 8.0×10^3 cells/wells, 1.5% FBS, 78 Hr, normalized response data
Method: as §1

[6] = test system: Caki-2; test: Tumor growth inhibition, Caki-2; settings: Homo sapiens, read-out: Dasatinib GI50; Caki-2, clear cell carcinoma
[7] = test system: 786-O; test: Tumor growth inhibition, 786-O; settings: Homo sapiens, 786-0, read-out: Dasatinib GI50, renal cell adenocarcinoma
[8] = test system: known Src protein substrates; test: Phosphorylation of Src substrates in c-Src (527F) transformed NIH3T3 cells
Method: (§2) Compounds of the invention may be Src signaling inhibitors that bind in the Src peptide substrate site. The activity of various compounds of the invention has been studied in c-Src (527F, constitutively active and transforming) transformed NIH3T3 cells and in human colon cancer cells (HT29).
(§3) HT29 (colon cancer) and c-Src527F/NIH-3T3 (Src transformed) cell lines are treated with a compound of the invention or with AstraZeneca's ATP competitive Src inhibitor AZ28 (KX2-328). AZ28 serves as a positive comparator to show what a validated Src inhibitor should do in these assays. After treatment with compound, cells are lysed, subjected to PAGE and probed with a battery of antibodies. […] In addition, off-target protein phosphorylation is also investigated. Further, induction of apoptosis is evaluated via Caspase 3 cleavage. Multiple doses of each compound are tested because the trends in response to increasing drug concentration are the most reliable indicator of activity.
(§4) A dose response curve is generated using the GI50 for the compounds of the invention in each of the two cell lines as the 1× concentration. […] The same range of multiples of the GI50 for AZ28 in these two cell lines are run as a comparison.

[9] = test system: known Src protein substrates; test: Phosphorylation of Src substrates in HT29 cells; settings: human colon cancer cells (HT29)
Method: as §2, §3, §4

[10] = test system: HT29; test: BrdU cell growth inhibition, HT29; settings: Homo sapiens, HT-29; HT29 cells; read-out: HT29 GI 50
Method: (§5) The GI50s for the compounds of the invention is assayed as described herein.
The HT29 cell line is a NCI standard human colon carcinoma cell line. HT-29 cells are obtained from ATCC at passage 125 and are used for inhibition studies between passage 126-151. HT29 cells are routinely cultured in McCoy's 5A medium supplemented with Fetal Bovine Serum (1.5% v/v) and L-glutamine (2 mM).
In the BrdU Assay for cell growth inhibition, quantitation of cell proliferation is based on the measurement of BrdU incorporation during DNA synthesis. The Cell Proliferation ELISA BrdU assay kit (colorimetric) is obtained from Roche Applied Science and performed as per vendor instructions.
The growth inhibition (G1) is determined from the formula G1=(T0−Tr×100/T0−CONn) where T0 is the BrdU growth of untreated cells at time “0”, Tn, is the BrdU growth of treated cells at day “n” and CONn is the control BrdU growth of control cells at day “n”. The GI50 is extrapolated and the data plotted using XL-Fit 4.0 software. […]
(§6) Seeded 96 well plates are allowed to attach overnight for 18-24 hours, either at 37° C. and 5% CO2 for HT-29 or at 37° C. and 10% CO2 for c-Src 3T3. Approx 18-24 hours after seeding, the initial growth of cells (T0) is determined for untreated cells using the BrdU assay. […] Plates are assayed for BrdU and the data is analyzed as above for GI50.

[11] = test system: Ba/F3-JAK2; test: Ba/F3-JAK2 cell growth inhibition; settings: Ba/F3-JAK2 cells
[12] = test system: Ba/F3-JAK3; test: Ba/F3-JAK3 cell growth inhibition; settings: Ba/F3-JAK3 cells
[13] = test system: c-Src527F/NIH 3T3; test: BrdU cell growth inhibition, c-Src527F/NIH 3T3; settings: Mus musculus, NIH3T3; c-Src527F/NIH 3T3 cells; read-out: c-Src527F/NIH 3T3 GI 50
Method: as §5
The c-Src 3T3 is a mouse fibroblast NIH 3T3 normal cell line that has been transfected with a point-mutant of human c-Src wherein tyrosine 527 has been converted to a phenylalanine. This mutation results in “constitutively active” c-Src because phosphorylation on tyrosine 527 results in auto-inhibition of Src by having it fold back on its own SH2 domain. With a Phe there, this phosphorylation can't occur and therefore auto-inhibition can't occur. Thus, the always fully active mutant Src then converts the normal mouse fibroblasts into rapidly growing tumor cells. […]
In the BrdU Assay for cell growth inhibition, quantitation of cell proliferation is based on the measurement of BrdU incorporation during DNA synthesis. […]
The growth inhibition (G1) is determined from the formula G1=(T0−Tr×100/T0−CONn) where T0 is the BrdU growth of untreated cells at time “0”, Tn, is the BrdU growth of treated cells at day “n” and CONn is the control BrdU growth of control cells at day “n”. […]
as §6

Compound: Cc1nc(Nc2ncc(C(=O)Nc3c(C)cccc3Cl)s2)cc(N2CCN(CCO)CC2)n1 [Dasatinib]
- GI50 [1]: 21.1 nM
- IC50 [2]: 1970 nM
- IC80 [2]: 7140 nM
- GI50 [3]: 46.3 nM
- IC80 [4]: > 50000 nM
- IC80 [5]: > 50000 nM
- GI50 [6]: 14.2 nM
- GI50 [7]: 2010 nM

Compound: O=C(Cc1ccc(-c2ccc(OCCN3CCOCC3)cc2)cn1)NCc1ccccc1 [KX2-391]
- phosphorylation level of known Src protein substrates [8]: reduce the phosphorylation level of known Src protein substrates in a dose-dependent fashion
- phosphorylation level of known Src protein substrates [9]: reduce the phosphorylation level of known Src protein substrates in a dose-dependent fashion

- GI50 [10]: 1230 nM
- IC50 [11]: 1320 nM
- IC50 [12]: 1200 nM
Compound: O=C(Cc1ccc(-c2ccc(OCCN3CCOCC3)cc2F)nc1)NCCC1CCCC1
- GI50 [13]: 1160 nM

- GI50 [10]: 1060 nM
- IC50 [11]: 2080 nM
- IC50 [12]: 1290 nM
Compound: C[C@@H](NC(=O)Cc1ccc(-c2ccc(OCCN3CCOCC3)cc2F)nc1)C1CCCCC1
- GI50 [13]: 1230 nM
